Laboratory results from PubChem BioAssay (NCI).
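Assay format: 96-well plates, 48-hour exposure. At the GI50, growth is halved. TGI: total growth inhibition.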

Experiments:
Assay in all cases: NCI-60 cell line screen, 48 h
[1] = test system: 786-0 renal
[2] = test system: A498 renal
[3] = test system: A549 NSCLC
[4] = test system: ACHN renal
[5] = test system: BT-549 breast
[6] = test system: CAKI-1 renal
[7] = test system: CCRF-CEM leukemia
[8] = test system: COLO 205 colon
[9] = test system: DU-145 prostate
[10] = test system: EKVX NSCLC
[11] = test system: HCC-2998 colon
[12] = test system: HCT-116 colon
[13] = test system: HCT-15 colon
[14] = test system: HL-60(TB) leukemia
[15] = test system: HOP-62 NSCLC
[16] = test system: HOP-92 NSCLC
[17] = test system: HS 578T breast
[18] = test system: HT29 colon
[19] = test system: IGROV1 ovarian
[20] = test system: K-562 leukemia
[21] = test system: KM12 colon
[22] = test system: LOX IMVI melanoma
[23] = test system: M14 melanoma
[24] = test system: MALME-3M melanoma
[25] = test system: MCF7 breast
[26] = test system: MDA-MB-231 breast
[27] = test system: MDA-MB-435
[28] = test system: MOLT-4 leukemia
[29] = test system: NCI-H226 lung

Structure (SMILES): CN=C(N)c1ccc(N=C(N)c2ccc(-c3ccc(C(N)=Nc4ccc(C(N)=NC)cc4)cc3)cc2)cc1
- GI50 [1]: > 100 µM
- TGI [1]: > 100 µM
- GI50 [2]: > 100 µM
- TGI [2]: > 100 µM
- GI50 [3]: > 100 µM
- TGI [3]: > 100 µM
- GI50 [4]: > 100 µM
- TGI [4]: > 100 µM
- GI50 [5]: > 100 µM
- TGI [5]: > 100 µM
- GI50 [6]: > 100 µM
- TGI [6]: > 100 µM
- GI50 [7]: > 100 µM
- TGI [7]: > 100 µM
- GI50 [8]: 99.5 µM
- TGI [8]: > 100 µM
- GI50 [9]: 41.2 µM
- TGI [9]: > 100 µM
- GI50 [10]: > 100 µM
- TGI [10]: > 100 µM
- GI50 [11]: > 100 µM
- TGI [11]: > 100 µM
- GI50 [12]: 75.8 µM
- TGI [12]: > 100 µM
- GI50 [13]: > 100 µM
- TGI [13]: > 100 µM
- GI50 [14]: 58.3 µM
- TGI [14]: > 100 µM
- GI50 [15]: > 100 µM
- TGI [15]: > 100 µM
- GI50 [16]: 84.5 µM
- TGI [16]: > 100 µM
- GI50 [17]: > 100 µM
- TGI [17]: > 100 µM
- GI50 [18]: 62.8 µM
- TGI [18]: > 100 µM
- GI50 [19]: 38.6 µM
- TGI [19]: > 100 µM
- GI50 [20]: 89.5 µM
- TGI [20]: > 100 µM
- GI50 [21]: 61.9 µM
- TGI [21]: > 100 µM
- GI50 [22]: 83 µM
- TGI [22]: > 100 µM
- GI50 [23]: 82.2 µM
- TGI [23]: > 100 µM
- GI50 [24]: 25.5 µM
- TGI [24]: 78.7 µM
- GI50 [25]: 19 µM
- TGI [25]: > 100 µM
- GI50 [26]: > 100 µM
- TGI [26]: > 100 µM
- GI50 [27]: 59.2 µM
- TGI [27]: > 100 µM
- GI50 [28]: > 100 µM
- TGI [28]: > 100 µM
- GI50 [29]: 55.9 µM
- TGI [29]: > 100 µM
